Consider 8 compounds from the NIST ThermoML archive (doi:10.1021/je100725a).

For data set [1] the following is noted: Crystal.
Data set [2] is described as follows: Molar enthalpy of transition or fusion. To be noted: Crystal; DSC.

Each structure is given as a SMILES string. Numbers after ± are expanded uncertainties.

As to `CCCCCCCCCCC(C)=O` [2-dodecanone], the results for the Normal melting temperature in data set [1] and in data set [1] (DTA) were 21 ± 0.6 °C and 21.12 ± 0.39 °C, respectively. In addition, in data set [2], the “Molar enthalpy of transition or fusion” value amounted to 9.44 ± 0.201 kcal/mol.

As for `CCCCCC(C)=O` [2-heptanone], the Normal melting temperature in data set [1] was -36 ± 0.6 °C; in data set [1] (DTA) it was -36.6 ± 0.4 °C. In data set [2], the “Molar enthalpy of transition or fusion” value came to 4.56 ± 0.108 kcal/mol.

As to `CCCCCCCC(C)=O` [2-nonanone], the Normal melting temperature in data set [1] was -9.8 ± 0.6 °C; in data set [1] (DTA), -9.47 ± 0.39 °C. For the same compound, the “Molar enthalpy of transition or fusion” value in data set [2] was 6.54 ± 0.146 kcal/mol.

For the compound `CCCCCCCCCCCC(C)=O` [2-tridecanone], the Normal melting temperature in data set [1] was determined as 27.7 ± 0.6 °C; in data set [1] (DTA), 28.60 ± 0.39 °C. Further, the “Molar enthalpy of transition or fusion” value in data set [2] came to 10.5 ± 0.222 kcal/mol.

`CCCCCCCCCC(C)=O` [2-undecanone]: the values for the Normal melting temperature in data set [1] and in data set [1] (DTA) were 11.7 ± 0.6 °C and 12.11 ± 0.39 °C, respectively.

As for `CCCCCCCCCCO` [decan-1-ol], in data set [1], the Normal melting temperature was determined as 6.4 ± 0.6 °C. Also, in data set [2], the “Molar enthalpy of transition or fusion” value turned out to be 7.5 ± 0.165 kcal/mol.

Turning to `CCCCCCCCCCCCO` [dodecan-1-ol], the Normal melting temperature in data set [1] stood at 23.5 ± 0.6 °C. The “Molar enthalpy of transition or fusion” value in data set [2] worked out at 9.02 ± 0.194 kcal/mol.

As to `CCCCCCCCO` [octan-1-ol], the Normal melting temperature in data set [1] was -14.5 ± 0.6 °C. The “Molar enthalpy of transition or fusion” value in data set [2] was found to be 5.66 ± 0.129 kcal/mol.
